Test results: ChEMBL document CHEMBL1201862, “PubChem BioAssay data set” (2004)
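Each compound was tested at five concentrations against cells in 96-well plates for 48 hours. At the GI50, growth is halved.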 Activity calls are given as the source filed them. Rule as the data show it: active = GI50 up to about 1.1 µM and inactive = higher.

Key:
Assay in all cases: DTP human tumour cell line panel, 48 h
[1] = test system: A549
[2] = test system: ACHN
[3] = test system: DU-145
[4] = test system: EKVX
[5] = test system: HCC 2998
[6] = test system: HCT-116
[7] = test system: HL-60
[8] = test system: HT-29
[9] = test system: Hs-578T
[10] = test system: IGROV-1
[11] = test system: M14
[12] = test system: MCF7
[13] = test system: MDA-N
[14] = test system: NCI-H23
[15] = test system: SF-295
[16] = test system: SK-MEL-2
[17] = test system: SK-MEL-5
[18] = test system: SK-OV-3
[19] = test system: T47D
[20] = test system: UACC-62

Measured: GI50

CN(C)Cc1cc(O)c(O)c(CN(C)C)c1
inactive: [1] 46.6 µM | [2] 34.5 µM | [3] 35.9 µM | [4] 16.4 µM | [5] 29 µM | [6] 41.3 µM | [7] 24.8 µM | [8] 40.2 µM | [9] > 100 µM | [10] 46.3 µM | [11] 22.7 µM | [12] 39.6 µM | [13] 57.8 µM | [14] 37 µM | [15] 47 µM | [16] 37.2 µM | [17] 29.4 µM | [18] 54.1 µM | [19] 49.9 µM | [20] 29.5 µM

O=c1[nH]c(=O)n(C2OC(CO)C(O)C2O)cc1Oc1ccccc1 (stereo not given)
inactive: [1] > 100 µM | [2] > 100 µM | [3] > 100 µM | [4] > 100 µM | [5] > 100 µM | [6] > 100 µM | [7] > 100 µM | [8] > 100 µM | [9] 98.9 µM | [10] > 100 µM | [11] > 100 µM | [12] > 100 µM | [13] > 100 µM | [14] > 100 µM | [15] > 100 µM | [16] > 100 µM | [17] > 100 µM | [18] > 100 µM | [19] > 100 µM | [20] > 100 µM

CC1=C2NCN(C)N=C2C(C#N)(C#N)C1(C#N)C#N
inactive: [1] > 78.5 µM | [2] 17.9 µM | [3] 42.3 µM | [4] 26 µM | [5] 21 µM | [6] 23.1 µM | [7] 1.93 µM | [8] 21.4 µM | [9] 32.6 µM | [10] 24.8 µM | [11] 23.8 µM | [12] 19.8 µM | [13] 15.6 µM | [14] 14.1 µM | [15] > 100 µM | [16] > 61.7 µM | [17] 27.4 µM | [18] > 100 µM | [19] 21.7 µM | [20] 20.8 µM

CC1CN=C(Nc2cccc(F)c2)S1 (stereo not given)
inactive: [1] > 100 µM | [2] > 100 µM | [3] > 100 µM | [4] > 100 µM | [5] > 100 µM | [6] > 100 µM | [7] > 100 µM | [8] > 100 µM | [9] > 100 µM | [10] > 100 µM | [11] > 100 µM | [12] > 100 µM | [13] > 100 µM | [14] > 100 µM | [15] > 100 µM | [16] > 100 µM | [17] > 100 µM | [18] > 100 µM | [19] > 100 µM | [20] > 100 µM

Cc1ccccc1C(=N)c1ccccc1Cc1cccc2ccccc12
inactive: [1] 25.1 µM | [2] 30.4 µM | [3] 21.8 µM | [4] 29.4 µM | [5] 17.5 µM | [6] 11.9 µM | [7] 18.1 µM | [8] 16.1 µM | [9] 4.63 µM | [10] 28.9 µM | [11] 34.2 µM | [12] 19.1 µM | [13] 22.2 µM | [14] 24.5 µM | [15] 19.2 µM | [16] 16.9 µM | [17] 17.9 µM | [18] 26.3 µM | [19] 14.1 µM | [20] 15.1 µM

O=c1[nH][nH]c(=O)c2c1ccc1oc3ccccc3c12
inactive: [1] > 100 µM | [2] > 100 µM | [3] > 100 µM | [4] 56.2 µM | [5] 99.3 µM | [6] > 100 µM | [7] > 100 µM | [8] > 100 µM | [9] > 100 µM | [10] > 100 µM | [11] > 100 µM | [12] > 100 µM | [13] > 100 µM | [14] > 100 µM | [15] > 100 µM | [16] > 100 µM | [17] > 100 µM | [18] > 100 µM | [19] > 100 µM | [20] > 100 µM
